Test results as given in patent publication US8338624B2, “Isoflavone derivatives and uses thereof” (Yeda Research and Development Co., Ltd., priority 2007, dated 2012).

Assays:
[1] = test system: A2780 ovarian cancer cells; test: DNA synthesis by [3H]-thymidine incorporation, A2780 cells; assay type: cell-based, human
Experimental: (§1) Cells were cultured in MEM supplemented with 10% FCS and antibiotics. Cells were grown to subconfluence and then treated with various hormones or agents as described by Somjen et al. (Somjen et al., 1998). The cells were characterized in terms of expression of mRNAs for estrogen […] by real time PCR, and the results are summarized in Table 1. N87, 320DM and H295R cells expressed mRNAs for both ERs. The ratio of ERα to ERβ was 1:8.5, 1:30 and 1:1.8 in N87, 320DM and H295R cells, respectively. Ovarian A2780 and prostate C4-24 cells expressed mainly mRNA for ERβ, and the ratio of ERβ to ERα was 300:1 and 70:1, respectively. MLS ovarian cells expressed mRNA only for ERβ. The ratio of ERα to ERβ in T47D cells has been reported to be 9:1.
(§2) [^3H]-Thymidine incorporation into DNA was used for the assessment of the various effects (proliferative or inhibitory) of various isoflavones, isoflavone derivatives and known cytotoxic drugs in the above-mentioned cells. Cells were grown until subconfluence using conditions described in Somjen et al. (Somjen et al., 1998) and then treated with various agents for 24 or 48 h as indicated. At the end of incubation, [^3H]-thymidine was added for two hours. Cells were then treated with 10% ice-cold trichloroacetic (TCA) for 5 min and washed twice with 5% TCA and then with cold ethanol. The cellular layer was dissolved in 0.3 ml of 0.3 M NaOH, aliquots were taken for counting radioactivity, and [^3H]-thymidine incorporation into DNA was calculated.

[2] = test system: human prostate C4-2B cancer cells; test: DNA synthesis by [3H]-thymidine incorporation, C4-2B cells; assay type: cell-based
Experimental: as §1, §2

[3] = test system: Human umbilical vascular smooth muscle cells (VSMC); test: DNA synthesis by [3H]-thymidine incorporation, normal VSMC; assay type: cell-based; conditions: compound at 3 μM
Experimental: Human umbilical vascular smooth muscle cells (VSMC) sensitive to estrogen, were grown in culture as described above, and used only at passages 1-3, when expression of smooth muscle actin was clearly demonstrable (Somjen et al. 2000). The ratio of the expression of mRNA for ERα to ERβ was 2.7:1.
as §2

[4] = test system: H295R adrenocarcinoma cells; test: DNA synthesis by [3H]-thymidine incorporation, H295R cells; assay type: cell-based, human
Experimental: as §1, §2

[5] = test system: 320DM human colon cancer cells; test: DNA synthesis by [3H]-thymidine incorporation, 320DM cells; assay type: cell-based
Experimental: as §1
as §2, with “(Somjen et al., 1998) and then treated with various agents for 24 or 48 h as indicated.” left out

320DM colon xenografts = 320DM colon xenografts in nude mice; assay type: in vivo; conditions: 320DM xenografts, 8 ip daily 230 μg, 9 injections within 11 days
From the text: Female CD1 nude mice (8-week old, ˜30 g) were housed and handled with free access to food and water in the animal facility according to the guidelines (1996) of the Institutional Animal Care and Use Committee of the Weizmann Institute of Science, Rehovot, Israel.
Thirty female CD-1 nude mice were inoculated sc with 2×10^6 320DM human colon cancer cells. Two weeks later, 13 mice that developed palpable tumors were divided into two groups: control (5 mice) and treatment (8 mice). Each mouse of the treatment group received daily intra-peritoneal (ip) injections of compound 8 (230 μg in 70 μl of propylene glycol:PBS (20:80)) and the control mice received only propylene glycol:PBS. Each treated mouse received 9 injections within 11 days. The tumors were measured with calipers every other day during 12 days in two dimensions, length (a) and width (b), and tumor area was calculated using the formula: r^2×3.14, where r=a/2+b/2/2. The tumor area on Day 0 was taken as 100%.

[6] = test system: T47D mammary cancer cells; test: DNA synthesis by [3H]-thymidine incorporation, T47D cells; assay type: cell-based, human; conditions: Homo sapiens
Experimental: as §1, §2

CC(C)(C)OC(=O)NCCCCCCNC(=O)CCCc1oc2cc(O)cc(O)c2c(=O)c1-c1ccc(O)cc1 [Compound 8, 2-[3-[N-[6-(tert-Butoxycarbonyl)-aminohexyl]]-caboxamidopropyl]-5,7,4′-trihydroxyisoflavone]
effect on DNA synthesis ([1]; at 3 μM): had no effect | DNA synthesis, ratio experimental/control (E/C) ([1]; compound at 3 μM): 1.12 ± 0.19 | inhibition of DNA synthesis ([2]; at 30 nM and 300 nM): 10-15% | DNA synthesis, ratio experimental/control (E/C) ([2]; compound at 0.3 μM): 0.75 ± 0.07 | DNA synthesis, ratio experimental/control (E/C) [3]: 0.78 ± 0.1 | inhibition at 3 µM ([4]; Homo sapiens, NCI-H295R, at 3 μM, read-out: inhibition of DNA synthesis / growth): 40 to 45% | DNA synthesis, ratio experimental/control (E/C) ([4]; compound at 3 μM): 0.6 ± 0.14 | effect on DNA synthesis / growth ([5]; 30 to 3000 nM): significant growth inhibitory effect | DNA synthesis, ratio experimental/control (E/C) ([5]; compound at 3 μM): 0.2 ± 0.09 | effect on growth of tumors (320DM colon xenografts): slowed down the growth of the tumors | inhibition at 10 µM [6]: 24 to 40%
